Experimental findings from patent US20150238447A1, “BETA-HYDROXY-BETA-METHYLBUTRYIC ACID-CONTAINING COMPOSITIONS AND USES THEREOF” (ABBOTT LABORATORIES, priority 2012, published 2015) are described below.

The test system of the test is mice fed a high fat diet. Briefly: motor (exploratory) activity in activity monitoring chamber, Opto-Varimex 4. Format: in vivo. To be noted: high fat diet plus Ca-HMB (170 or 340 mg/kg of drinking water) compared to high fat diet alone; 30 minutes observation. The protocol:
The mice arrived at the facility at 21 days post birth and were divided into 6 groups after a seven day quarantine. There were 5 animals each. […] were placed on the following diets:
Group 1: High Fat Diet alone;
Group 2: High Fat Diet plus 500 mg of leucine/kg of drinking water;
Group 3: High Fat Diet plus 1000 mg of leucine/kg of drinking water;
Group 4: High Fat Diet plus 170 mg of Ca-HMB/kg of drinking water;
Group 5: High Fat Diet plus 340 mg of Ca-HMB/kg of drinking water; and
One week before the initiation of the study, the animals were acclimatized in the activity monitoring chamber, daily for half an hour. On the day of experiment, each set of animals were placed in the activity monitoring chamber (chamber 1 to 5) for half an hour. Motor activity of the mice in each group was monitored using the Actometry Apparatus: “Opto-Varimex 4” Auto-track system, Model No: 0271-004M. The motor activity of each mouse was monitored once in a week between 8:30 AM and 12:00 PM for 30 minutes. Six sets of “half an hour observations” were made for each of the 30 animals. The software captured motor activity parameters while the animals were in the activity monitoring chamber.

With `CC(C)(O)CC(=O)O` [HMB, beta-hydroxy-beta-methylbutyric acid], the exploratory activity entry is “enhanced exploratory activity”.
